Results taken from patent US8987195B2 (priority 2012, dated 2015).

How the values were obtained:
[1] = target: HCV NS3/4A protease genotype 1b (Hepatitis C virus genotype 1b, UniProt P26663); assay: HCV NS3/4A protease time-resolved fluorescence (TRF) assay, Ki against genotype 1b; assay type: biochemical; conditions: IC50 [gt-1b] (nM), NS3/4A genotype 1b, enzyme 0.2 nM
Summary of the method: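 Ki was converted from fitted IC50 using IC50=Ki(1+[S]/KM) and 25 nM substrate. Protease (genotype 1b 0.2 nM, A156T 0.4 nM, 3a 0.025 nM) and compound were pre-mixed 30 min in pH 7.5 HEPES/NaCl/glycerol/DTT buffer. Cleavage then proceeded 2.5 h at room temperature, detected by time-resolved europium fluorescence (340/615 nm).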

HCV genotype 1b replicon = assay: HCV replicon assay, genotype 1b replicon EC50; assay type: cell-based, Hepatitis C virus; conditions: Hepatitis C virus, genotype 1b replicon; read-out: EC50 [gt-1b]
Summary of the method: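 Readout was replicon RNA copy number, by 32P-probe protection or TaqMan normalized to cellular cyclophilin A RNA, or luciferase activity for luciferase:Neo^r fusion lines. Cells were exposed to serially diluted compound for 24-48 hours without G418, then washed and lysed. EC50 derived from four-parameter fit relative to DMSO.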

SMILES	IC50 [1] [nM]	EC50 (HCV genotype 1b replicon) [nM]
Cc1nc2ccccc2c2c1O[C@]1(CC2)C[C@H]2C(=O)N[C@]3(C(=O)NS(=O)(=O)C4(C)CC4)C[C@H]3/C=C\CCCCC[C@H](N(CCC(C)(C)C)CCC(C)(C)C)C(=O)N2C1 [Example 163, (2R,6S,12Z,13aS,14aR,16aS)-6-[bis(3,3-dimethylbutyl)amino]-5′-methyl-N-[(1-methylcyclopropyl)sulfonyl]-5,16-dioxo-1,1′,2′,6,7,8,9,10,11,13a,14,15,16,16a-tetradecahydrospiro[cyclopropa[e]pyrrolo[1,2-a][1,4]diazacyclopentadecine-2,3′-pyrano[2,3-c]quinoline]-14a(5H)-carboxamide]	6.21	> 100
Cc1nc2ccccc2c2c1O[C@]1(CC2)C[C@H]2C(=O)N[C@]3(C(=O)NS(=O)(=O)C4(C)CC4)C[C@H]3/C=C\CCCCC[C@H](NCCC(C)(C)C)C(=O)N2C1 [Example 164, (2R,6S,12Z,13aS,14aR,16aS)-6-[(3,3-dimethylbutyl)amino]-5′-methyl-N-[(1-methylcyclopropyl)sulfonyl]-5,16-dioxo-1,1′,2′,6,7,8,9,10,11,13a,14,15,16,16a-tetradecahydrospiro[cyclopropa[e]pyrrolo[1,2-a][1,4]diazacyclopentadecine-2,3′-pyrano[2,3-c]quinoline]-14a(5H)-carboxamide]	0.132	2.71
COc1ccc2nc(C(C)C)c3c(c2c1)CC[C@]1(C[C@H]2C(=O)N[C@]4(C(=O)NS(=O)(=O)C5(C)CC5)C[C@H]4/C=C\CCCCC[C@H](NC(=O)OC4(C)CC4)C(=O)N2C1)O3 [Example 165, 1-methylcyclopropyl [(2R,6S,12Z,13aS,14aR,16aS)-9′-methoxy-14a-{[(1-methylcyclopropyl)sulfonyl]carbamoyl}-5,16-dioxo-5′-(propan-2-yl)-1,1′,2′,5,6,7,8,9,10,11,13a,14,14a,15,16,16a-hexadecahydrospiro[cyclopropa[e]pyrrolo[1,2-a][1,4]diazacyclopentadecine-2,3′-pyrano[2,3-c]quinolin]-6-yl]carbamate]	0.005	1.39
CC1(S(=O)(=O)NC(=O)[C@@]23C[C@H]2/C=C\CCCCC[C@H](NC(=O)OC2CCCCC2)C(=O)N2C[C@@]4(CCc5c(c(C6CC6)nc6c(F)cccc56)O4)C[C@H]2C(=O)N3)CC1 [Example 166, cyclohexyl [(2R,6S,12Z,13aS,14aR,16aS)-5′-cyclopropyl-7′-fluoro-14a-{[(1-methylcyclopropyl)sulfonyl]carbamoyl}-5,16-dioxo-1,1′,2′,5,6,7,8,9,10,11,13a,14,14a,15,16,16a-hexadecahydrospiro[cyclopropa[e]pyrrolo[1,2-a][1,4]diazacyclopentadecine-2,3′-pyrano[2,3-c]quinolin]-6-yl]carbamate]	0.019	2.4
CC(C)C1(OC(=O)N[C@H]2CCCCC/C=C\[C@@H]3C[C@@]3(C(=O)NS(=O)(=O)C3(C)CC3)NC(=O)[C@@H]3C[C@]4(CCc5c(c(C6CC6)nc6c(F)cccc56)O4)CN3C2=O)CC1 [Example 167, 1-(propan-2-yl)cyclopropyl [(2R,6S,12Z,13aS,14aR,16aS)-5′-cyclopropyl-7′-fluoro-14a-{[(1-methylcyclopropyl)sulfonyl]carbamoyl}-5,16-dioxo-1,1′,2′,5,6,7,8,9,10,11,13a,14,14a,15,16,16a-hexadecahydrospiro[cyclopropa[e]pyrrolo[1,2-a][1,4]diazacyclopentadecine-2,3′-pyrano[2,3-c]quinolin]-6-yl]carbamate]	0.02	1.88
CC1(OC(=O)N[C@H]2CCCCC/C=C\[C@@H]3C[C@@]3(C(=O)NS(=O)(=O)C3(C)CC3)NC(=O)[C@@H]3C[C@]4(CCc5c(c(C6CC6)nc6c(F)cccc56)O4)CN3C2=O)CC1 [Example 168, 1-methylcyclopropyl [(2R,6S,12Z,13aS,14aR,16aS)-5′-cyclopropyl-7′-fluoro-14a-{[(1-methylcyclopropyl)sulfonyl]carbamoyl}-5,16-dioxo-1,1′,2′,5,6,7,8,9,10,11,13a,14,14a,15,16,16a-hexadecahydrospiro[cyclopropa[e]pyrrolo[1,2-a][1,4]diazacyclopentadecine-2,3′-pyrano[2,3-c]quinolin]-6-yl]carbamate]	0.013	3.73
COc1ccc2nc(C(C)C)c3c(c2c1)CC[C@]1(C[C@H]2C(=O)N[C@]4(C(=O)NS(=O)(=O)C5(C)CC5)C[C@H]4/C=C\CCCCC[C@H](NC(=O)OC4(C)CCC4)C(=O)N2C1)O3 [Example 169, 1-methylcyclobutyl [(2R,6S,12Z,13aS,14aR,16aS)-9′-methoxy-14a-{[(1-methylcyclopropyl)sulfonyl]carbamoyl}-5,16-dioxo-5′-(propan-2-yl)-1,1′,2′,5,6,7,8,9,10,11,13a,14,14a,15,16,16a-hexadecahydrospiro[cyclopropa[e]pyrrolo[1,2-a][1,4]diazacyclopentadecine-2,3′-pyrano[2,3-c]quinolin]-6-yl]carbamate]	0.019	1.53
COc1ccc2nc(C3CCC3)c3c(c2c1)CC[C@]1(C[C@H]2C(=O)N[C@]4(C(=O)NS(=O)(=O)C5(C)CC5)C[C@H]4/C=C\CCCCC[C@H](NC(=O)OC4CCCC4)C(=O)N2C1)O3 [Example 170, cyclopentyl [(2R,6S,12Z,13aS,14aR,16aS)-5′-cyclobutyl-9′-methoxy-14a-{[(1-methylcyclopropyl)sulfonyl]carbamoyl}-5,16-dioxo-1,1′,2′,5,6,7,8,9,10,11,13a,14,14a,15,16,16a-hexadecahydrospiro[cyclopropa[e]pyrrolo[1,2-a][1,4]diazacyclopentadecine-2,3′-pyrano[2,3-c]quinolin]-6-yl]carbamate]	0.013	2.65
COc1ccc2nc(C3CCC3)c3c(c2c1)CC[C@]1(C[C@H]2C(=O)N[C@]4(C(=O)NS(=O)(=O)C5(C)CC5)C[C@H]4/C=C\CCCCC[C@H](NC(=O)OCC(C)C)C(=O)N2C1)O3 [Example 171, 2-methylpropyl [(2R,6S,12Z,13aS,14aR,16aS)-5′-cyclobutyl-9′-methoxy-14a-{[(1-methylcyclopropyl)sulfonyl]carbamoyl}-5,16-dioxo-1,1′,2′,5,6,7,8,9,10,11,13a,14,14a,15,16,16a-hexadecahydrospiro[cyclopropa[e]pyrrolo[1,2-a][1,4]diazacyclopentadecine-2,3′-pyrano[2,3-c]quinolin]-6-yl]carbamate]	0.013	1.62
Cc1nc2ccccc2c2c1O[C@]1(CC2)C[C@H]2C(=O)N[C@]3(C(=O)NS(=O)(=O)C4(C)CC4)C[C@H]3/C=C\CCCCC[C@H](NCCc3ccccc3)C(=O)N2C1 [Example 172, (2R,6S,12Z,13aS,14aR,16aS)-5′-methyl-N-[(1-methylcyclopropyl)sulfonyl]-5,16-dioxo-6-[(2-phenylethyl)amino]-1,1′,2′,6,7,8,9,10,11,13a,14,15,16,16a-tetradecahydrospiro[cyclopropa[e]pyrrolo[1,2-a][1,4]diazacyclopentadecine-2,3′-pyrano[2,3-c]quinoline]-14a(5H)-carboxamide]	0.24	7.99
Cc1nc2ccccc2c2c1O[C@]1(CC2)C[C@H]2C(=O)N[C@]3(C(=O)NS(=O)(=O)C4(C)CC4)C[C@H]3/C=C\CCCCC[C@H](N(CCc3ccccc3)CCc3ccccc3)C(=O)N2C1 [Example 173, (2R,6S,12Z,13aS,14aR,16aS)-6-[bis(2-phenylethyl)amino]-5′-methyl-N-[(1-methylcyclopropyl)sulfonyl]-5,16-dioxo-1,1′,2′,6,7,8,9,10,11,13a,14,15,16,16a-tetradecahydrospiro[cyclopropa[e]pyrrolo[1,2-a][1,4]diazacyclopentadecine-2,3′-pyrano[2,3-c]quinoline]-14a(5H)-carboxamide]	6.27	> 100
Cc1nc2ccc(OC(F)(F)F)cc2c2c1O[C@]1(CC2)C[C@H]2C(=O)N[C@]3(C(=O)NS(=O)(=O)C4(C)CC4)C[C@H]3/C=C\CCCCC[C@H](NC(=O)OC3(C)CCC3)C(=O)N2C1 [Example 174, 1-methylcyclobutyl [(2R,6S,12Z,13aS,14aR,16aS)-5′-methyl-14a-{[(1-methylcyclopropyl)sulfonyl]carbamoyl}-5,16-dioxo-9′-(trifluoromethoxy)-1,1′,2′,5,6,7,8,9,10,11,13a,14,14a,15,16,16a-hexadecahydrospiro[cyclopropa[e]pyrrolo[1,2-a][1,4]diazacyclopentadecine-2,3′-pyrano[2,3-c]quinolin]-6-yl]carbamate]	0.007	2.33
CC1(S(=O)(=O)NC(=O)[C@@]23C[C@H]2/C=C\CCCCC[C@H](NC(=O)OC2CCC2)C(=O)N2C[C@@]4(CCc5c(c(C6CC6)nc6c(F)cccc56)O4)C[C@H]2C(=O)N3)CC1 [Example 175, cyclobutyl [(2R,6S,12Z,13aS,14aR,16aS)-5′-cyclopropyl-7′-fluoro-14a-{[(1-methylcyclopropyl)sulfonyl]carbamoyl}-5,16-dioxo-1,1′,2′,5,6,7,8,9,10,11,13a,14,14a,15,16,16a-hexadecahydrospiro[cyclopropa[e]pyrrolo[1,2-a][1,4]diazacyclopentadecine-2,3′-pyrano[2,3-c]quinolin]-6-yl]carbamate]	0.028	1.67
